Assay results taken from patent US9828349B2, “1-aryl-1-hydroxy-2,3-diamino-propyl amines, 1-heteroaryl-1-hydroxy-2,3-diamino-propyl amines and related compounds having analgesic and/or immuno stimulant activity” (Allergan, Inc., priority 2005, dated 2017).

What was measured:
[1] = tested on: tactile allodynia (Chung model); experiment: Chung model: reversal of tactile allodynia after spinal nerve ligation (von Frey hairs); assay type: in vivo; settings: highest % allodynia reversal out of 15, 30, 60 min post-drug, rat
Source text: An art-accepted model or assay for measuring an analgesic effect of a compound in chronic pain (in particular peripheral neuropathy) is the model known as Kim and Chung 1992, Pain […], pp 355-363 (Chung model). This model involves the surgical ligation of the L5 (and optionally the L6) spinal nerves on one side in experimental animals. Rats recovering from the surgery gain weight and display a level of general activity similar to that of normal rats. However, these rats develop abnormalities of the foot, wherein the hindpaw is moderately everted and the toes are held together. More importantly, the hindpaw on the side affected by the surgery appears to become sensitive to low-threshold mechanical stimuli and will perceive pain instead of the faint sensation of touch. This sensitivity to normally non-painful touch, called “tactile allodynia”, develops within the first week after surgery and lasts for at least two months. The allodynia response includes lifting the affected hindpaw to escape from the stimulus, licking the paw and holding it in the air for many seconds. None of these responses is normally seen in the control group.
To produce the tactile allodynia, rats are anesthetized before surgery. The surgical site is shaved and prepared either with betadine or Novacaine. Incision is made from the thoracic vertebra XIII down toward the sacrum. Muscle tissue is separated from the spinal vertebra (left side) at the L4-S2 levels. […]
Tactile allodynia is assessed via von Frey hairs, which are a series of fine hairs with incremental differences in stiffness. […] The applied force has been calculated to range from 0.41 to 15.1 grams. […] The 50% paw withdrawal threshold is determined using the method of Dixon, W. J., Ann. […] Tactile allodynia is measured prior to and 15, 30, and 60 minutes after drug administration. The post-drug threshold is compared to the pre-drug threshold and the percent reversal of tactile sensitivity is calculated based on a normal threshold of 15.1 grams. […]

GlcCer synthase = molecular target: T1, GlcCer synthase (Homo sapiens, UniProt Q16739); settings: cited from earlier work
T1 sequence (Q16739 1-394): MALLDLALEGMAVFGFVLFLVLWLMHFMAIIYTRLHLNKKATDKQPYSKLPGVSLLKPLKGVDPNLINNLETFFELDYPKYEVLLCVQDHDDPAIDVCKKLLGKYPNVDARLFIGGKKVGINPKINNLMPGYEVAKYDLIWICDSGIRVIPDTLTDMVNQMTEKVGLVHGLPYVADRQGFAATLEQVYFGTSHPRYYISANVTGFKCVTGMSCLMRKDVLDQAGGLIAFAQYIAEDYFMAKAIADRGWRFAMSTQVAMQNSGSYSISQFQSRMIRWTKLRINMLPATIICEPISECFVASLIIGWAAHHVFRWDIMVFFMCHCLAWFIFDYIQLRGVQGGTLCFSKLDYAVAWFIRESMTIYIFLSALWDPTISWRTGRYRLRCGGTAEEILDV

[2] = tested on: spatial memory deficit after transient forebrain ischemia; settings: treatment after transient forebrain ischemia in rats; cited from earlier work

Row | SMILES | Peak % Pain reversal ([1]; 300 μg/kg IP) | inhibition of GCS (glucosylceramide synthase) (GlcCer synthase) | further results
1 | N[C@@H](CN1CCCC1)[C@@H](O)c1ccncc1 (racemic) [Compound 46, DL-threo-2-amino-1-(pyridin-4-yl)-3-(pyrrolidin-1-yl)propan-1-ol] | – | – | Peak % Pain reversal ([1]; 30 μg/kg IP): 96%
2 | Cl.O=C(N[C@@H](CN1CCOCC1)[C@@H](O)c1ccccc1)OCc1ccccc1 [Compound 1, benzyl L-threo-1-hydroxy-3-morpholino-1-phenylpropan-2-ylcarbamate hydrochloride] | 44% | – | –
3 | CC(=O)O[C@@H](c1ccccc1)[C@H](CN1CCOCC1)NC(=O)OCc1ccccc1.Cl [Compound 3, benzyl L-threo-1-acetoxy-3-morpholino-1-phenylpropan-2-ylcarbamate hydrochloride] | 92% | – | –
4 | CCCCCCCCCCCCCCCC(=O)N[C@H](CN1CCCC1)[C@H](O)c1ccc(O)cc1 [D-threo-4′-hydroxy-P4] | – | one of the most potent inhibitor of GCS | –
5 | CCCCCCCCCC(=O)N[C@@H](CN1CCOCC1)[C@@H](O)c1ccccc1 [L-threo-PDMP, (1S,2S)-1-phenyl-2-decanoylamino-3-morpholino-1-propanol] | – | – | deficit of a well learned spatial memory (8-arm maze task) [2]: ameliorated the deficit of a well learned spatial memory
6 | O=C(N[C@H](CN1CCCC1)[C@H](O)c1ccccc1)OCc1ccccc1 [PBPP, D-threo-1-phenyl-2-benzyloxycarbonylamino-3-pyrrolidino-1-propanol] | – | potent GCS inhibitor | –
